Reference: BigSolDB 2.1

Compound `CC(C)(c1ccc(O)cc1)c1ccc(O)cc1` has a solubility (mole fraction) (in ethanol, 273.15 K) of 0.209, a solubility (mole fraction) (in ethanol, 278.15 K) of 0.214 and a solubility (mole fraction) (in ethanol, 283.15 K) of 0.22. For the same compound, the solubility (mole fraction) (in ethanol, 288.15 K) was 0.226, the solubility (mole fraction) (in ethanol, 293.15 K) was 0.232 and the solubility (mole fraction) (in ethanol, 298.15 K) was 0.238. The solubility (mole fraction) (in ethanol, 303.15 K) was 0.245, the solubility (mole fraction) (in ethanol, 308.15 K) was 0.252 and the solubility (mole fraction) (in ethanol, 313.15 K) was 0.26. The solubility (mole fraction) (in ethyl acetate, 273.15 K) was 0.234, the solubility (mole fraction) (in ethyl acetate, 278.15 K) was 0.238 and the solubility (mole fraction) (in ethyl acetate, 283.15 K) was 0.241. For the same compound, the solubility (mole fraction) (in ethyl acetate, 288.15 K) was 0.243, the solubility (mole fraction) (in ethyl acetate, 293.15 K) was 0.247 and the solubility (mole fraction) (in ethyl acetate, 298.15 K) was 0.252. It also gave a solubility (mole fraction) (in ethyl acetate, 303.15 K) of 0.256, a solubility (mole fraction) (in ethyl acetate, 308.15 K) of 0.261 and a solubility (mole fraction) (in ethyl acetate, 313.15 K) of 0.266. For the same compound, the solubility (mole fraction) (in n-butanol, 273.15 K) was 0.0745, the solubility (mole fraction) (in n-butanol, 278.15 K) was 0.0832 and the solubility (mole fraction) (in n-butanol, 283.15 K) was 0.094. It also gave a solubility (mole fraction) (in n-butanol, 288.15 K) of 0.106, a solubility (mole fraction) (in n-butanol, 293.15 K) of 0.119 and a solubility (mole fraction) (in n-butanol, 298.15 K) of 0.135. For the same compound, the solubility (mole fraction) (in n-butanol, 303.15 K) was 0.147, the solubility (mole fraction) (in n-butanol, 308.15 K) was 0.166 and the solubility (mole fraction) (in n-butanol, 313.15 K) was 0.183. For the same compound, the solubility (mole fraction) (in sec-butanol, 273.15 K) was 0.0343, the solubility (mole fraction) (in sec-butanol, 278.15 K) was 0.0391 and the solubility (mole fraction) (in sec-butanol, 283.15 K) was 0.0465. The solubility (mole fraction) (in sec-butanol, 288.15 K) was 0.0564, the solubility (mole fraction) (in sec-butanol, 293.15 K) was 0.0649 and the solubility (mole fraction) (in sec-butanol, 298.15 K) was 0.0725. The solubility (mole fraction) (in sec-butanol, 303.15 K) was 0.0846, the solubility (mole fraction) (in sec-butanol, 308.15 K) was 0.094 and the solubility (mole fraction) (in sec-butanol, 313.15 K) was 0.105.
